In ChEMBL document CHEMBL5512673, “Secondary Structure Stabilization of Macrocyclic Antimicrobial Peptides via Cross-Link Swapping” (J Med Chem, 2024):
≈ marks a conversion by molar mass, not a printed value. Calls of active or inactive are those of the source. The rule behind the calls is not given here. Bridge positions count the residues as written; N and C are the ends. Square brackets hold non-standard residues; d marks the D form. Peptide text beside a SMILES is read from it. Dab = NCC[C@H](N)C(=O)O; Dap = NC[C@H](N)C(=O)O

Legend:
Trypsin = Trypsin (Homo sapiens, UniProt P07477+P07478+P35030); assay: Stability of compound in PBS at […] assessed as trypsin (unknown origin)-mediated drug degradation measured after 3 to 60 mins using TAMRA-labelled compound by HPLC analysis; type: ADME, protein assay; settings: buffer, time 3-60 min
Escherichia coli [1] = assay: Antibacterial activity against Escherichia coli assessed as inhibition of bacterial growth incubated for 24 hrs by nutrient agar plate method; type: functional
Escherichia coli [2] = assay: Antibacterial activity against Escherichia coli assessed as reduction in bacterial cell viability incubated for 24 hrs by nutrient agar plate method; type: functional, organism-based
[3] = system: Staphylococcus epidermidis; assay: Antibacterial activity against Staphylococcus epidermidis assessed as inhibition of bacterial growth incubated for 24 hrs by nutrient agar plate method; type: functional
Bacillus subtilis [4] = assay: Antibacterial activity against Bacillus subtilis assessed as inhibition of bacterial growth incubated for 24 hrs by nutrient agar plate method; type: functional
Micrococcus luteus [5] = assay: Antibacterial activity against Micrococcus luteus assessed as reduction in bacterial cell viability incubated for 24 hrs by nutrient agar plate method; type: functional, organism-based
Micrococcus luteus [6] = assay: Antibacterial activity against Micrococcus luteus assessed as inhibition of bacterial growth incubated for 24 hrs by nutrient agar plate method; type: functional
Bacillus subtilis [7] = assay: Antibacterial activity against Bacillus subtilis assessed as reduction in bacterial cell viability incubated for 24 hrs by nutrient agar plate method; type: functional, organism-based
[8] = system: Staphylococcus epidermidis; assay: Antibacterial activity against Staphylococcus epidermidis assessed as reduction in bacterial cell viability incubated for 24 hrs by nutrient agar plate method; type: functional, organism-based
RAW264.7 [9] = assay: Effect on IL-10 release in mouse RAW264.7 cells at 50 uM incubated for 24 hrs by ELISA; type: functional, cell-based
Bacillus subtilis [10] = assay: Antibacterial activity against Bacillus subtilis ATCC 6051 assessed as aggregation of bacteria into flakes at 2 to 50 uM incubated for 4 hrs by bacterial flocculation assay; type: functional, organism-based; settings: dose 2-50 µM
Escherichia coli [11] = assay: Antibacterial activity against Escherichia coli NEB 5alpha assessed as aggregation of bacteria into flakes at 2 to 50 uM incubated for 4 hrs by bacterial flocculation assay; type: functional, organism-based; settings: dose 2-50 µM
[12] = Aggregation property of compound in aqueous solution assessed as critical micelle concentration by dynamic light scattering analysis; type: physicochemical; settings: buffer
RAW264.7 [13] = assay: Upregulation of IL-1beta production in mouse RAW264.7 cells at 50 uM incubated for 24 hrs by ELISA; type: functional, cell-based
RAW264.7 [14] = assay: Anti-inflammatory activity in mouse RAW264.7 cells assessed as reduction in LPS-induced IL-1beta production at 50 uM incubated for 24 hrs by ELISA; type: functional, cell-based
RAW264.7 [15] = assay: Anti-inflammatory activity in mouse RAW264.7 cells assessed as reduction in LPS-induced IL-10 production at 50 uM incubated for 24 hrs by ELISA; type: functional, cell-based
RAW264.7 [16] = assay: Cytotoxicity against mouse RAW264.7 cells assessed as reduction in cell viability at 100 uM incubated for 24 hrs by MTS assay; type: toxicity, cell-based; settings: raw264.7, 24 h

SMILES	Stability (Trypsin)	MIC (Escherichia coli [1])	IC50 (Escherichia coli [2])	MIC [3]	MIC (Bacillus subtilis [4])	IC50 (Micrococcus luteus [5])	MIC (Micrococcus luteus [6])	IC50 (Bacillus subtilis [7])	IC50 [8]	Activity (RAW264.7 [9])	Activity (Bacillus subtilis [10])	Activity (Escherichia coli [11])	CMC [12]	Activity (RAW264.7 [13])	Activity (RAW264.7 [14])	Activity (RAW264.7 [15])	Activity (RAW264.7 [16])
CN(C)c1ccc2c(-c3ccc(C(=O)N[C@@H](Cc4ccc(O)cc4)C(=O)NCC(=O)N[C@@H](CCCNC(=N)N)C(=O)N[C@@H](CCCCN)C(=O)N[C@@H](CCCCN)C(=O)N[C@@H](CCCNC(=N)N)C(=O)N[C@@H](CCCNC(=N)N)C(=O)N[C@@H](CCC(N)=O)C(=O)N[C@@H](CCCNC(=N)N)C(=O)N[C@@H](CCCNC(=N)N)C(=O)N[C@@H](CCCNC(=N)N)C(=O)O)cc3C(=O)[O-])c3ccc(=[N+](C)C)cc-3oc2c1	Unstable	–	–	–	–	–	–	–	–	–	–	–	–	–	–	–	–
CC1(C)S[C@@H]2[C@H](NC(=O)[C@H](N)c3ccccc3)C(=O)N2[C@H]1C(=O)O [AMPICILLIN]	–	12.5 µM (≈ 4.37 µg/mL)	1.5 µM	50 µM (≈ 17.5 µg/mL)	25 µM (≈ 8.74 µg/mL)	1.1 µM	3.1 µM (≈ 1.08 µg/mL)	1 µM	8.5 µM	–	–	–	–	–	–	–	–
CC[C@H](C)[C@@H]1NC(=O)[C@H](CCCNC(=N)N)NC(=O)[C@H](Cc2ccccc2)NC(=O)[C@H](CCCCN)NC(=O)[C@H](Cc2ccccc2)NC(=O)[C@H](CCCNC(=N)N)NC(=O)[C@@H](N)CCC(=O)NC[C@@H](C(N)=O)NC(=O)[C@H]([C@@H](C)CC)NC(=O)[C@H](C(C)C)NC1=O (H-ERFKFRIVI[Dap]-NH2; lactam 1-10)	–	80 µM (≈ 102 µg/mL)	41.5 µM	40 µM (≈ 51 µg/mL)	100 µM (≈ 127 µg/mL)	–	–	38.5 µM	10.2 µM	Active	Active	Active	10.8 µM	Active	Active	Active	Non-Toxic
CC[C@H](C)[C@@H]1NC(=O)[C@H](CCCNC(=N)N)NC(=O)[C@H](Cc2ccccc2)NC(=O)[C@H](CCCCN)NC(=O)[C@H](Cc2ccccc2)NC(=O)[C@H](CCCNC(=N)N)NC(=O)[C@@H](N)CCC(=O)NCC[C@@H](C(N)=O)NC(=O)[C@H]([C@@H](C)CC)NC(=O)[C@H](C(C)C)NC1=O (H-ERFKFRIVI[Dab]-NH2; lactam 1-10)	–	40 µM (≈ 51.5 µg/mL)	8.5 µM	20 µM (≈ 25.8 µg/mL)	60 µM (≈ 77.3 µg/mL)	11.1 µM	80 µM (≈ 103 µg/mL)	15 µM	3.5 µM	Active	Active	Active	> 100 µM	Active	inactive	inactive	Non-Toxic
CC[C@H](C)[C@@H]1NC(=O)[C@H](CCCNC(=N)N)NC(=O)[C@H](Cc2ccccc2)NC(=O)[C@H](CCCCN)NC(=O)[C@H](Cc2ccccc2)NC(=O)[C@H](CCCNC(=N)N)NC(=O)[C@@H](N)CNC(=O)CC[C@@H](C(N)=O)NC(=O)[C@H]([C@@H](C)CC)NC(=O)[C@H](C(C)C)NC1=O (H-[Dap]RFKFRIVIE-NH2; lactam 1-10)	–	100 µM (≈ 127 µg/mL)	35.9 µM	40 µM (≈ 51 µg/mL)	100 µM (≈ 127 µg/mL)	–	–	36.2 µM	7.2 µM	Active	Active	Active	2.3 µM	Active	Active	Active	Non-Toxic
CC[C@H](C)[C@@H]1NC(=O)[C@H](CCCNC(=N)N)NC(=O)[C@H](Cc2ccccc2)NC(=O)[C@H](CCCCN)NC(=O)[C@H](Cc2ccccc2)NC(=O)[C@H](CCCNC(=N)N)NC(=O)[C@@H](N)CSSC[C@@H](C(N)=O)NC(=O)[C@H]([C@@H](C)CC)NC(=O)[C@H](C(C)C)NC1=O (H-CRFKFRIVIC-NH2; disulfide 1-10)	–	80 µM (≈ 103 µg/mL)	32.2 µM	50 µM (≈ 64.1 µg/mL)	100 µM (≈ 128 µg/mL)	–	–	461 µM	8.5 µM	Active	Active	Active	4.5 µM	Active	Active	Active	Non-Toxic
CC[C@H](C)[C@@H]1NC(=O)[C@H](CCCNC(=N)N)NC(=O)[C@H](Cc2ccccc2)NC(=O)[C@H](CCCCN)NC(=O)[C@H](Cc2ccccc2)NC(=O)[C@H](CCCNC(=N)N)NC(=O)[C@@H](N)CCNC(=O)CC[C@@H](C(N)=O)NC(=O)[C@H]([C@@H](C)CC)NC(=O)[C@H](C(C)C)NC1=O (H-[Dab]RFKFRIVIE-NH2; lactam 1-10)	–	40 µM (≈ 51.5 µg/mL)	10.7 µM	20 µM (≈ 25.8 µg/mL)	60 µM (≈ 77.3 µg/mL)	18 µM	80 µM (≈ 103 µg/mL)	15.4 µM	3.9 µM	Active	Active	Active	> 100 µM	Active	inactive	inactive	Non-Toxic
